Literature values in EP1941860A1, “Topical formulations” (ACO Hud Nordic AB, priority 2006, dated 2008).

Settings: in prior art formulations

- concentration producing a stinging action: about 0.5 % by weight of the formulation
SMILES: CC(O)C(=O)O (stereo not shown) [lactic acid]
